Among the data in US20050163852A1, “Process for loading and thermodynamically activating drungs on polymers by means of supercritical fluids” (priority 2002, published 2005) are Crystallinity values, retold here.

The data set in a line: Activation level by Differential Scanning Calorimetry (fraction of crystalline form). The class given is physicochemical. The conditions noted are these: DSC, ΔHmelting/ΔH0 normalized to drug assayed in the polymer. The method, then: The presence of amorphous, nanocrystalline or crystal phase can be detected by means of Differential Scanning Calorimetry (DSC). Compared to the sharp melting peak of the drug crystal, the nanocrystals present a broader peak with a markedly lower maximum of temperature (I. Colombo et al. 4th Int. Conf. Pharm. Technol., 1986; F. Carli et al. Acta Pharm. Jugosl. 38, 361, 1988).
In the examples, the activation level is expressed as the fraction of crystalline form. It is determined by comparing the enthalpy relative to the melting of the crystals in the polymer (ΔHmelting) to that of pure drug (ΔH0). The ΔHmelting/ΔH0 ratio, normalized in accordance with the drug assayed in the polymer, is then considered equal to the fraction of crystalline form. The higher the amount of crystals (higher crystallinity), the lower the thermodynamic activation level of the drug.
(In general: In DSC, transitions show as peaks or steps in heat flow.)

For `CC(C)Cc1ccc(C(C)C(=O)O)cc1` (stereo not drawn) [Ibuprofen, ibuprofen], the Crystallinity is reported as 100% (ibuprofen, supercritical CO2) and 100% (ibuprofen, supercritical ethylene).

`CS(=O)(=O)Nc1ccc([N+](=O)[O-])cc1Oc1ccccc1` [Nimesulide, nimesulide] returned a Crystallinity (nimesulide, supercritical CO2) of 100%.
